Holding throughout (format): cell-based
Data set [1] is described as follows: Cytotoxicity assay (Cytotoxicity LDH Assay Kit). The settings on record: human. How it is done:
(§1) To determine the cytotoxicity induced by LRAs and its related compounds, cells (5 × 10^5 cells/mL) were cultured in the presence or absence of LRA. After 24 h, cytotoxicity assays were performed using a Cytotoxicity LDH Assay Kit (Dojindo, Kumamoto, Japan) according to the manufacturer’s instructions. The number of living cells with the drug was measured and compared with those without the drug, and data are shown as percentage (%) of control.

The subject of data set [2] is latent HIV-1-infected ACH-2 cells. Briefly: HIV reactivation from latent cells: supernatant p24 antigen. The settings on record: for viral production (supernatant p24 antigen levels): day 2, single drug (Figure 1A). The procedure:
The reactivation of HIV-1 from latently infected cells was determined by the measurement of supernatant p24 antigen and intracellular HIV-1 RNA levels. ACH-2 cells or U1 cells (5 × 10^5 cells/mL) were placed in 96-well plates, and then the cells were incubated with different concentrations of drugs for 24 h to extract RNA and for 48 h to collect the supernatant. The increase in supernatant p24 antigen levels was measured using […] G1200 (Fujirebio, Tokyo, Japan). The total RNA was extracted using an RNeasy Mini Kit (Qiagen, Hilden, Germany), following the manufacturer’s protocols. The cDNA was synthesized using PrimeScript RT Master Mix (Takara Bio, Shiga, Japan), and quantitative real-time PCR analyses for the intracellular HIV-1 RNA were carried out with PowerUp^TM SYBR Green Master Mix (Applied Biosystems, Foster City, CA, United States). The oligonucleotide primers used were as follows: 5′-[…]-3′ (forward) and 5′-[…]-3′ (reverse) for HIV-RNA detection; 5′-[…]-3′ (forward) and 5′-[…]-3′ (reverse) for β-actin. The HIV-RNA expressions were normalized with that of β-actin, which was indicated as the relative quantity, and the increase in HIV-1 RNA levels in the presence of a drug was compared with that without a drug.
FIGURE 1 (A,B) The increase in viral production from ACH-2 cells (A) and U1 cells (B) was examined by supernatant p24 antigen levels on day 2. (C,D) Changes in the intracellular HIV-1 mRNA levels due to treatment with these drugs in ACH-2 cells (C) and U1 cells (D) after 24 h of incubation.
(§2) FIGURE 2 (A) Effect of birinapant when combined with TNF-α. The supernatant p24 levels with birinapant (1∼100 nM) in ACH-2 cell culture on day 2 are shown in white bars, and p24 values with birinapant when combined with TNF-α (10 ng/ml) are shown in black bars. (B) HIV-1 production from ACH-2 cells when reactivated by PEP005 (0.05∼50 nM) for 24 h. (C) Changes in the living cell numbers in the presence of drug(s) on days 1, 3, and 5.

In data set [3] the test system is HIV-1 NL4-3. As to the kind of experiment: Antiviral assay, HIV-1 NL4-3 in MT-4 cells. The conditions noted are these: for antiviral effect when combined with EFdA: HIV-1 NL4-3 in MT-4 cells; for replication of HIV-1 NL4-3 (supernatant p24): MT-4 cells, cultured for 12 days, single drug. How it is done:
as §1, with “Antiviral assays using wild type HIV-1 (HIV-1 NL4-3) cells and MT-4 cells were conducted as previously described ([Maeda et al., 2014]; [Takamatsu et al., 2015]). To” for “To”
Supplementary file Data_Sheet_1.PDF: FIGURE S1 The combined effect of an RT inhibitor (EFdA/MK-8591) ([Nakata et al., 2007]; [Kawamoto et al., 2008]; [Maeda et al., 2014]) and PKC activator (PEP005) on the replication of HIV-1 NL4-3 in MT-4 cells. MT-4 cells were infected with HIV-1 NL4-3 in the presence or absence of drug(s), cultured for 12 days, and the supernatant p24 levels were measured. Click here for additional data file.

For data set [4], the system named is ACH-2 cells. As to the kind of experiment: Living cell numbers of ACH-2 cells in the presence of drug(s). The conditions noted are these: birinapant 50 nM; for cell toxicity / replication of ACH-2 cells: PEP005 5 nM (Figure 2C). The procedure:
as §2

The test system of data set [5] is cIAP. As to the kind of experiment: Determination of cIAP expression (western blotting). The settings on record: ACH-2 cells, 24 h; birinapant 50 nM, PEP005 5 nM, TNF-α 10 ng/ml. How it is done:
ACH-2 cells (1 × 10^6 cells/ml) were treated with different concentrations of the drug for 24 h, and the cells were washed twice with PBS. Cells were homogenized by CelLytic M Cell Lysis Reagent (Sigma-Aldrich, St. Louis, MO, United States) containing a protease inhibitor cocktail (Nacalai Tesque, Kyoto, Japan) and were incubated at room temperature (RT) for 15 min. The cells were then centrifuged at 13,000 rpm for 15 min, and the supernatant of the whole cell lysate was collected. The bicinchoninic acid (BCA) protein assay (Thermo Scientific, Rockford, IL, United States) was used to measure the actual protein amount in the treated and untreated cells. The protein extracts were separated through sodium dodecyl sulfate polyacrylamide gel electrophoresis (SDS-PAGE) and then were blotted onto a Trans Blot Turbo polyvinylidene difluoride (PVDF) membrane (Bio-Rad, Hercules, CA, United States). Protein bands were visualized using 3,3′,5,5′-tetramethylbenzidine (TMB) solution (Wako Pure Chemical). The sources of the antibodies were as follows: c-IAP1 (D5G9), c-IAP2 (58C7), and XIAP (3B6) were purchased from Cell Signaling Technology (Danvers, MA, United States); β-actin (C4) was purchased from Santa Cruz Biotechnology.
Supplementary file Data_Sheet_5.PDF: FIGURE S5 Western blotting (WB) analysis for IAP family proteins in ACH-2 cells. Cells were exposed to birinapant (50 nM) in the presence or absence of PEP005 (5 nM), with TNF-α (10 ng/ml) co-treatment for 24 h, and cell lysates were used for WB analysis. Click here for additional data file.
For orientation: In western blotting, separated proteins are transferred to a membrane and probed.

The nature of data set [6]: Toxicity on PHA-stimulated PBMCs from healthy donor (WST-8 assay). The conditions noted are these: human. The procedure: Table S1. CC50 values on PHA-stimulated PBMCs from healthy donor
PBMCs (2 x 10^6 cells/ml) were treated with birinapant or PEP005 and cultured for 3days. Cell viability was
Table S2. Toxicity of PEP005 and birinapant in combination
Agent (concentration) % replication
PEP005 (1 µM) + birinapant (1 µM) 65.5 %
PBMCs (2 x 10^6 cells/ml) were treated with birinapant (10 nM - 10 µM) and/or PEP005 (10 nM - 100 µM)
and cultured for 3 days. Cell viability was measured by WST-8 assay.
Background: Tetrazolium assays rely on reduction of a dye to a coloured formazan, in cell work by metabolically active cells.

The mark [7] stands for this setting: A3.01 cells, read-out: CC50 ± SD against A3.01.
The mark [8] stands for this setting: ACH-2 cells, read-out: CC50 ± SD against ACH-2.
The mark [9] stands for this setting: HL-60 cells, read-out: CC50 ± SD against HL-60.
Where [10] appears, read: J1.1 cells, read-out: CC50 ± SD against J1.1.
[11] abbreviates: Jurkat cells, read-out: CC50 ± SD against Jurkat.
The mark [12] stands for this setting: OM10.1 cells, read-out: CC50 ± SD against OM10.1.
Setting [13] is: U1 cells, read-out: CC50 ± SD against U1.
Setting [14] is: U937 cells, read-out: CC50 ± SD against U937.

Read-outs that look alike come from different tables or passages of the source. Bounds are passed on as bounds.

For the compound `CC[C@H](NC(=O)[C@H](C)NC)C(=O)N1C[C@@H](O)C[C@H]1Cc1c(-c2[nH]c3cc(F)ccc3c2C[C@@H]2C[C@H](O)CN2C(=O)[C@H](CC)NC(=O)[C@H](C)NC)[nH]c2cc(F)ccc12` [Birinapant], the CC50 at 24 h is 0.2 ± 0.08 µM in data set [1] (setting [7]); above 100 µM in data set [1] (setting [8]); above 100 µM in data set [1] (setting [9]); 48 ± 0.9 µM in data set [1] (setting [10]); 13 ± 0.1 µM in data set [1] (setting [11]); 53 ± 8 µM in data set [1] (setting [12]). Moreover, the CC50 at 24 h in data set [1] (setting [13]) and in data set [1] (setting [14]) was above 100 µM in each case. Moreover, in data set [2] (ACH-2 cells reactivated by PEP005 (or TNF-α), simultaneously treated with birinapant 50 nM, 24 h), the “decrease of supernatant p24 levels” value is around 40%. Further, the “supernatant p24 antigen levels” value in data set [2] (ACH-2 cells, birinapant 1∼100 nM alone, day 2 (Figure 2A)) was “failed to affect supernatant p24 antigen levels”. The “viral production (supernatant p24 antigen levels)” value in data set [2] (ACH-2 cells) is reported as “only had a minor effect on HIV-1 reactivation”. For the same compound, in data set [3], the “antiviral effect when combined with EFdA” value is “no additive/synergistic antiviral effect”. For the same compound, the “replication of HIV-1 NL4-3 (supernatant p24)” value in data set [3] is listed as “little to no effect on viral replication”. Further, in data set [4], the “cell toxicity / replication of ACH-2 cells” value is on record as “failed to show cell toxicity”. The “cIAP expression (western blotting)” value in data set [5] is on record as “decreased expression of cIAP”. Further, the 50% cytotoxic concentration (CC50) at 3 days in data set [6] came to 10.7 ± 0.2 µM.

Take `C/C=C(/C)C(=O)O[C@H]1C(C)=C[C@]23C(=O)[C@@H](C=C(CO)[C@@H](O)[C@]12O)[C@H]1[C@@H](C[C@H]3C)C1(C)C` [PEP005, ingenol-3-angelate]: the CC50 at 24 h in data set [1] (setting [7]) was 47 ± 9 µM; in data set [1] (setting [8]), 19 ± 0.4 µM; in data set [1] (setting [9]), above 100 µM; in data set [1] (setting [10]), 44 ± 2 µM; in data set [1] (setting [11]), 16 ± 3 µM; in data set [1] (setting [12]), 84 ± 6 µM. Moreover, the CC50 at 24 h in data set [1] (setting [13]) and in data set [1] (setting [14]) was above 100 µM throughout. Also, the “supernatant HIV-1 p24 levels” value in data set [2] (ACH-2 cells, after 24 h, PEP005 5 nM and higher (Figure 2B)) is “reactivated and increased the supernatant HIV-1 p24 levels”. For the same compound, in data set [2] (ACH-2 cells, day 2 (Figure 1A)), the “increase of supernatant HIV-1 p24 levels compared with unstimulated ACH-2 cells” value is listed as above 100 fold. Also, the “viral production (supernatant p24 antigen levels)” value in data set [2] (ACH-2 cells) is on record as “increased viral production”. For the same compound, the “antiviral effect when combined with EFdA” value in data set [3] is reported as “no additive/synergistic antiviral effect”. In addition, the “replication of HIV-1 NL4-3 (supernatant p24)” value in data set [3] was “little to no effect on viral replication”. Moreover, the “cell toxicity / replication of ACH-2 cells” value in data set [4] is on record as “strongly inhibited the replication of ACH-2 cells”. In addition, the “number of living cells” value in data set [4] (day 5, PEP005 5 nM) was 370000 mL⁻¹. Further, in data set [5], the “cIAP expression (western blotting)” value is “upregulation of cIAP-1 (and cIAP-2)”. Moreover, in data set [6] (PHA-stimulated PBMCs from healthy donor, 3 days, WST-8 assay, read-out: CC50 (µM) ± SD), the CC50 at 3 days was above 100 µM.

The term CC50 denotes the concentration giving 50% cytotoxicity.

These data come from article PMC6156138, “Combination of a Latency-Reversing Agent With a Smac Mimetic Minimizes Secondary HIV-1 Infection in vitro” (Frontiers in Microbiology, 2018).
